Experimental data from patent US20220281848A1, “PYRAZOLE-SUBSTITUTED PYRROLIDINONES AS HERBICIDES” (FMC Corporation, priority 2019, published 2022).

Test system: plants
Test: Test D pre-emergence, other plants of Tables D1 and D3
Assay type: in vivo
Settings: 20 DAA; for damage to plant (100=total damage to plant; 0=no damage to plant), BIDPI / damage to plant (100=total damage to plant; 0=no damage to plant), BRAPL / damage to plant (100=total damage to plant; 0=no damage to plant), CYPES / damage to plant (100=total damage to plant; 0=no damage to plant), EPHHL / damage to plant (100=total damage to plant; 0=no damage to plant), GLXMA / damage to plant (100=total damage to plant; 0=no damage to plant), IPOHE / damage to plant (100=total damage to plant; 0=no damage to plant), SORVU: preemergent; for CHEAL damage rating / GALAP damage rating / KCHSC damage rating / LOLPE damage rating / POAAN damage rating / STEME damage rating / VERPE damage rating: pre-emergence, 100=total damage, 0=no damage
Method: A formulation containing 50 g/L of the test chemical was prepared by dissolving the active ingredient in a mixture of organic solvents and emulsifier, details of which are provided in the table. This formulation was then mixed with a small, variable amount of acetone to aid dissolution, before addition of a 0.2% v/v aqueous solution of an adjuvant, as the aqueous diluent, to form an aqueous spray solution which contains a predetermined concentration of the active ingredient.
This aqueous spray solution was then sprayed onto plants including maize and wheat that had been seed treated with a herbicide safener, after one day's cultivation (for pre-emergence) or after about 12 days' cultivation (for post-emergence). The plants were grown from seeds sown in standard soil, placed in a glasshouse under controlled conditions (at 24/18° C. or 20/16° C., day/night; 16 h light; 65% humidity). After spray application the plants were then grown in a glasshouse under the same conditions and watered twice daily. After 15 d for post-emergence and 20 DAA for pre-emergence the test was evaluated (100=total damage to plant; 0=no damage to plant).

CN1CC(c2cnn(C)c2C(F)(F)F)C(C(=O)Nc2cccc(F)c2F)C1=O (racemic) [Compound 25]
damage to plant (100=total damage to plant; 0=no damage to plant), BIDPI (rate 15): 0 | damage to plant (100=total damage to plant; 0=no damage to plant), BIDPI (rate 30): 0 | damage to plant (100=total damage to plant; 0=no damage to plant), BIDPI (rate 60): 0 | damage to plant (100=total damage to plant; 0=no damage to plant), BIDPI (rate 130): 0 | damage to plant (100=total damage to plant; 0=no damage to plant), BIDPI (rate 250): 0 | damage to plant (100=total damage to plant; 0=no damage to plant), BIDPI (rate 500): 0 | damage to plant (100=total damage to plant; 0=no damage to plant), BRAPL (rate 15): 0 | damage to plant (100=total damage to plant; 0=no damage to plant), BRAPL (rate 30): 0 | damage to plant (100=total damage to plant; 0=no damage to plant), BRAPL (rate 60): 30 | damage to plant (100=total damage to plant; 0=no damage to plant), BRAPL (rate 130): 80 | damage to plant (100=total damage to plant; 0=no damage to plant), BRAPL (rate 250): 90 | damage to plant (100=total damage to plant; 0=no damage to plant), BRAPL (rate 500): 90 | CHEAL damage rating (Rates 15): 0 | CHEAL damage rating (Rates 30): 0 | CHEAL damage rating (Rates 60): 0 | CHEAL damage rating (Rates 130): 0 | CHEAL damage rating (Rates 250): 20 | CHEAL damage rating (Rates 500): 50 | damage to plant (100=total damage to plant; 0=no damage to plant), CYPES (rate 15): 0 | damage to plant (100=total damage to plant; 0=no damage to plant), CYPES (rate 30): 0 | damage to plant (100=total damage to plant; 0=no damage to plant), CYPES (rate 60): 0 | damage to plant (100=total damage to plant; 0=no damage to plant), CYPES (rate 130): 0 | damage to plant (100=total damage to plant; 0=no damage to plant), CYPES (rate 250): 0 | damage to plant (100=total damage to plant; 0=no damage to plant), CYPES (rate 500): 0 | damage to plant (100=total damage to plant; 0=no damage to plant), EPHHL (rate 15): 0 | damage to plant (100=total damage to plant; 0=no damage to plant), EPHHL (rate 30): 0 | damage to plant (100=total damage to plant; 0=no damage to plant), EPHHL (rate 60): 0 | damage to plant (100=total damage to plant; 0=no damage to plant), EPHHL (rate 130): 0 | damage to plant (100=total damage to plant; 0=no damage to plant), EPHHL (rate 250): 0 | damage to plant (100=total damage to plant; 0=no damage to plant), EPHHL (rate 500): 0 | GALAP damage rating (Rates 15): 0 | GALAP damage rating (Rates 30): 0 | GALAP damage rating (Rates 60): 0 | GALAP damage rating (Rates 130): 0 | GALAP damage rating (Rates 250): 0 | GALAP damage rating (Rates 500): 0 | damage to plant (100=total damage to plant; 0=no damage to plant), GLXMA (rate 15): 0 | damage to plant (100=total damage to plant; 0=no damage to plant), GLXMA (rate 30): 0 | damage to plant (100=total damage to plant; 0=no damage to plant), GLXMA (rate 60): 0 | damage to plant (100=total damage to plant; 0=no damage to plant), GLXMA (rate 130): 0 | damage to plant (100=total damage to plant; 0=no damage to plant), GLXMA (rate 250): 0 | damage to plant (100=total damage to plant; 0=no damage to plant), GLXMA (rate 500): 0 | damage to plant (100=total damage to plant; 0=no damage to plant), IPOHE (rate 15): 0 | damage to plant (100=total damage to plant; 0=no damage to plant), IPOHE (rate 30): 0 | damage to plant (100=total damage to plant; 0=no damage to plant), IPOHE (rate 60): 0 | damage to plant (100=total damage to plant; 0=no damage to plant), IPOHE (rate 130): 0 | damage to plant (100=total damage to plant; 0=no damage to plant), IPOHE (rate 250): 0 | damage to plant (100=total damage to plant; 0=no damage to plant), IPOHE (rate 500): 0 | KCHSC damage rating (Rates 15): 0 | KCHSC damage rating (Rates 30): 0 | KCHSC damage rating (Rates 60): 0 | KCHSC damage rating (Rates 130): 0 | KCHSC damage rating (Rates 250): 0 | KCHSC damage rating (Rates 500): 0 | LOLPE damage rating (Rates 15): 0 | LOLPE damage rating (Rates 30): 0 | LOLPE damage rating (Rates 60): 0 | LOLPE damage rating (Rates 130): 0 | LOLPE damage rating (Rates 250): 0 | LOLPE damage rating (Rates 500): 0 | POAAN damage rating (Rates 15): 0 | POAAN damage rating (Rates 30): 0 | POAAN damage rating (Rates 60): 0 | POAAN damage rating (Rates 130): 0 | POAAN damage rating (Rates 250): 0 | POAAN damage rating (Rates 500): 0 | damage to plant (100=total damage to plant; 0=no damage to plant), SORVU (rate 15): 0 | damage to plant (100=total damage to plant; 0=no damage to plant), SORVU (rate 30): 0 | damage to plant (100=total damage to plant; 0=no damage to plant), SORVU (rate 60): 0 | damage to plant (100=total damage to plant; 0=no damage to plant), SORVU (rate 130): 0 | damage to plant (100=total damage to plant; 0=no damage to plant), SORVU (rate 250): 0 | damage to plant (100=total damage to plant; 0=no damage to plant), SORVU (rate 500): 0 | STEME damage rating (Rates 15): 0 | STEME damage rating (Rates 30): 0 | STEME damage rating (Rates 60): 0 | STEME damage rating (Rates 130): 0 | STEME damage rating (Rates 250): 0 | STEME damage rating (Rates 500): 50 | VERPE damage rating (Rates 15): 0 | VERPE damage rating (Rates 30): 0 | VERPE damage rating (Rates 60): 0 | VERPE damage rating (Rates 130): 0 | VERPE damage rating (Rates 250): 0 | VERPE damage rating (Rates 500): 10
